In patent US20030158254A1, “Engineering absorption of therapeutic compounds via colonic transporters” (XenoPort, Inc., priority 2002, published 2003):

Experiments:
hSMVT [1] = molecular target: T1, hSMVT (Homo sapiens, UniProt Q9Y289); experiment: Transport currents in SMVT-expressing Xenopus oocytes, normalized to biotin; assay type: cell-based; details: response relative to biotin, transporter-expressing oocytes, test compound 0.5 mM
T1 sequence (Q9Y289 1-635): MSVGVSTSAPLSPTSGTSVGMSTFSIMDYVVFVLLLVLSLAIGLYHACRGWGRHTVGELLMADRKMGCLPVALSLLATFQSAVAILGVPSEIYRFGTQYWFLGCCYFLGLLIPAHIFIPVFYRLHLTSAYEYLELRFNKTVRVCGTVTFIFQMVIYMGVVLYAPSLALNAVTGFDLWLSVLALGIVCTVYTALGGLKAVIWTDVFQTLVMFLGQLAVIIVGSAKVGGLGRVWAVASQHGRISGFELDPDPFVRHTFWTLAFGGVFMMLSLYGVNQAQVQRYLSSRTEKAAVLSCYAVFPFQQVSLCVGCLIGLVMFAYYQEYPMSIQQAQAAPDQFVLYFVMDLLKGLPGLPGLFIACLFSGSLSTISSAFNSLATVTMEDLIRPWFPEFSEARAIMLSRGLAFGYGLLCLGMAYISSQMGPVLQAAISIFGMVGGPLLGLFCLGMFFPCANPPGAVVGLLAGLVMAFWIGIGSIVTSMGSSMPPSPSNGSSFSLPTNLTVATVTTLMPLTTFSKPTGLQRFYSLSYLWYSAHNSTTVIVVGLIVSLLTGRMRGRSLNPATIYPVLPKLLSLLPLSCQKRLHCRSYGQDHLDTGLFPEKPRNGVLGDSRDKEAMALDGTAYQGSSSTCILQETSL
Source text: (§1) The complete open reading frame of human ATBO+(SLC6A14) and SMVT (SLC5A6) were amplified from human cDNA prepared from liver or intestine mRNA. Gene-specific oligonucleotide primers were designed against Genbank sequences (AF151978 and NM-021095). Amplified PCR products were cloned into a modified version of the mammalian expression vector pcDNA3 (termed pMO) that was engineered to contain the 5′ and 3′ untranslated regions from the Xenopus beta-globin gene. All clones were completely sequenced and tested for function by transient transfection in HEK293 cells.
cRNA for oocyte expression was prepared by linearization of plasmid cDNA and in vitro transcription using T7 polymerase (Epicentre Ampliscribe kit). Xenopus oocytes were prepared and maintained as previously described (Collins et al., PNAS […]:5456-5460 (1997)) and injected with 10-30 ng RNA. Transport currents were measured 2-6 days later using two-electrode voltage-clamp (Axon Instruments). All experiments were performed using a modified oocyte Ringers solution (90 mM NaCl, 2 mM KCl, 1.8 mM CaCl2, 1 mM MgCl2, and 10 mM Na HEPES, pH 7.4; in Na^+-free solutions 90 mM choline chloride was substituted for NaCl). The membrane potential of oocytes was held at −60 mV and current traces acquired using PowerLab software (AD Instruments). Full 7-concentration dose-responses were performed for each compound. […] Half-maximal concentrations were calculated using non-linear regression curve fitting software (Prism) with the Hill co-efficient fixed to 1. To ensure that currents were specific for the over-expressed transporter, all compounds were tested against uninjected oocytes. Since both ATBO+ and SMVT require Na^+ for transport, we confirmed transport specificity by application of the compounds in a Na^+-free solution.
In vitro transport data for selected compounds on hSMVT-expressing cells

[2] = Uptake of compounds through the rat colon (intracolonic dosing, gabapentin in blood by LC/MS/MS); assay type: in vivo; details: dose equivalent to 25 mg gabapentin per kg, FIG. 3A
Description: Rats were obtained commercially and were pre-cannulated in the both the ascending colon and the jugular vein. Animals were conscious at the time of the experiment. All animals were fasted overnight and until 4 hours post-dosing. Prodrugs were administered as a solution (in water or polyethylene glycol 400) directly into the colon via the cannula at a dose equivalent to 25 mg of gabapentin per kg. Blood samples (0.5 mL) were obtained from the jugular cannula at intervals over 8 hours and were quenched immediately by addition of acetonitrile/methanol to prevent further conversion of the prodrug. Blood samples were analyzed as described in the attached sample analysis summary.
1. In blank 1.5 mL eppendorf tubes, add 300 μL of a 50/50 mixture of acetonitrile/methanol and 20 μL of the p-chlorophenylalanine as internal standard.
2. Rat blood was collected at different time points and immediately 100 μL of blood was added into the eppendorf tube and vortex to mix.
3. 10 μL of the gabapentin standard solution (0.04, 0.2, 1, 5, 25, 100 μg/mL) was added to 90 μL of blank rat blood to make up a final calibration standard (0.004, 0.02, 0.1, 0.5, 2.5, 10 μg/mL). […]
API 2000 LC/MS/MS mass spectrometer equipped with Shidmadzu 10ADVp binary pumps and an autosampler (CTC Analytics AG, High Throughput Screening-PAL) were used in the analysis. […] The peaks were integrated by the Analyst 1.1 quantitation software.

HEK cells = experiment: pH assay of uptake by transporters naturally expressed in HEK cells, with and without phloretin; assay type: cell-based, human; details: phloretin 0.5 mM, FIG. 1
Description: Although HEK's are a kidney derived cell line, they express some of the same transporters as the colon and can be used as a preliminary screen to identify substrates of colon-expressed transporters.
Cells were seeded at 100,000/well in 96 black, clear bottom plate overnight and washed twice in 100 μL buffer I at room temperature.
Cells were loaded with […] 2,7-bis-(2-carboxyethyl)-5-carboxyfluoroscein acetoxymethyl ester (BCECF AM) (resuspended in 50:50 dimethylsulfoxide:Pluronic™ surfactant mixture) in buffer 1 for 15 min. at 37° C. at 50 μL/well.
The rest of the protocol was performed at room temperature.
Cells were washed twice in buffer 2 at 50 μL/well. A first reading was taken in FLEX station in the buffer 2 at two sets of fluorescence excitation/emission wavelengths, 440/535 and 490/535, with 50 μL buffer/well. […] A second reading was taken in FLEX station at above settings (T0). […] A third reading was taken in FLEX station at above settings (T1). […]
For each well, values for A, B and C were calculated using the T0 and T1 data and the following equations:
A=measured fluorescence at excitation/emission wavelengths 440/535−background
B=measured fluorescence at excitation/emission wavelengths 490/535−background
The C values for the T0 and T1 data were used to determine the percent decrease in fluorescence at T1 relative to T0. […]

hSMVT [3] = molecular target: T1, hSMVT; experiment: Radiolabeled competition assay in SMVT-expressing CHO cells; assay type: cell-based
Source text: as §1, with “Gene-specific oligonucleotide primers were designed against Genbank sequences (AF151978 and NM-021095).” left out
For cell uptake studies, stable CHOK1 clones were seeded into polylysine coated 96-well microtitre plates and grown for 2-3 days. Cells were incubated with experimental solutions (combinations of radiolabeled and unlabeled compounds) for 30 minutes at room temperature, washed four times, and lysed in scintillation solution. Accumulation of radiolabeled molecules was measured in a microtitre scintillation plate reader (Perkin Elmer). Inhibition constants (IC50s) were calculated using curve-fitting software (Prism).

## CC(C)(C)C(=O)OCOC(=O)NCC1(CC(=O)O)CCCCC1 [Compound I, gabapentin pivaloxymethyl carbamate]
hSMVT [1]
  % Max. (Biotin): 21%
[2]
  Colonic uptake determined from plasma concentration of gabapentin: taken up best
HEK cells
  Uptake by HEK cells in presence and absence of transporter inhibitor phloretin: phloretin substantially inhibits uptake of Compound I

## CC(=O)OC(C)OC(=O)NCC1(CC(=O)O)CCCCC1 (stereo not drawn) [Compound IV, gabapentin acetoxyethyl carbamate]
hSMVT [3]
  IC50: 80 µM

## NCC1(CC(=O)O)CCCCC1 [Gabapentin, reference compound]
hSMVT [1]
  % Max. (Biotin): 0%
[2]
  Colonic uptake determined from plasma concentration of gabapentin: not taken up significantly
